Test results published in patent US4068070A, “α-Cyanoamine compounds and a process for producing the same” (Fuji Chemical Industry Co., Ltd., priority 1974, dated 1978).
Counter-ions that a name gives are not always drawn.

How the values were obtained:
[1] = test system: coronary sinus oxygen tension; test: Effects on coronary sinus oxygen tension; format: in vivo, mongrel adult dogs
Outline: (§1)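 Dog, mongrel, ~10 kg, thoracotomized, pentobarbital anesthesia. Dosing i.v. (brachial), vehicle CMC 0.2%, HCl pH 6 or saline. Coronary sinus outflow by electromagnetic flowmeter, coronary sinus pO2 by macro electrode, both via Morawitz cannulation.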

[2] = test system: arterial mean blood pressure; test: Effects on arterial mean blood pressure; format: in vivo, mongrel adult dogs
Outline: (§2)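 Open-chest, pentobarbital-anesthetized mongrel dogs (male and female, about 10 kg) received compounds intravenously via the brachial vein; vehicles were 0.2% CMC suspension, HCl solution (pH 6) or physiological saline. Mean arterial pressure came from a carotid-aortic cannula transducer, aortic flow from an electromagnetic flowmeter at the aortic root.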

coronary sinus out flow = test: Effects on coronary sinus out flow; format: in vivo, mongrel adult dogs
Outline: as §1

heart rate = test: Effects on heart rate; format: in vivo, mongrel adult dogs
Outline: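 Adult mongrel dogs of both sexes were anesthetized with pentobarbital and thoracotomized. Test agents, suspended or dissolved in 0.2% CMC, pH 6 HCl solution or saline, were injected intravenously into the brachial vein. Hemodynamic and coronary sinus parameters were then recorded.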

aortic blood flow = test: Effects on aortic blood flow; format: in vivo, mongrel adult dogs
Outline: as §2

coronary blood flow = conditions: marketed antianginal drug; cited from earlier work

## COc1ccc(CN2CCNCC2)c(OC)c1OC [Vastarel F, 2,3,4-trimethoxybenzylpiperazine dihydrochloride, reference compound]
[1]; 0.2 mg/kg i.v., 1 min
  Changes(%) of basal values, coronary sinus oxygen tension: +1.0%
[1]; 0.2 mg/kg i.v., 5 min
  Changes(%) of basal values, coronary sinus oxygen tension: 0%
[1]; 0.2 mg/kg i.v., 10 min
  Changes(%) of basal values, coronary sinus oxygen tension: 0%
[1]; 0.2 mg/kg i.v., 20 min
  Changes(%) of basal values, coronary sinus oxygen tension: 0%
[1]; 0.2 mg/kg i.v., 30 min
  Changes(%) of basal values, coronary sinus oxygen tension: 0%
[1]; 0.2 mg/kg i.v., imm.
  Changes(%) of basal values, coronary sinus oxygen tension: +3.0%
[1]; 0.6 mg/kg i.v., 1 min
  Changes(%) of basal values, coronary sinus oxygen tension: +5.5%
[1]; 0.6 mg/kg i.v., 5 min
  Changes(%) of basal values, coronary sinus oxygen tension: +1.0%
[1]; 0.6 mg/kg i.v., 10 min
  Changes(%) of basal values, coronary sinus oxygen tension: 0%
[1]; 0.6 mg/kg i.v., 20 min
  Changes(%) of basal values, coronary sinus oxygen tension: 0%
[1]; 0.6 mg/kg i.v., 30 min
  Changes(%) of basal values, coronary sinus oxygen tension: 0%
[1]; 0.6 mg/kg i.v., imm.
  Changes(%) of basal values, coronary sinus oxygen tension: +9.0%
[1]; 2.0 mg/kg i.v., 1 min
  Changes(%) of basal values, coronary sinus oxygen tension: +1.5%
[1]; 2.0 mg/kg i.v., 5 min
  Changes(%) of basal values, coronary sinus oxygen tension: +2.0%
[1]; 2.0 mg/kg i.v., 10 min
  Changes(%) of basal values, coronary sinus oxygen tension: +5.0%
[1]; 2.0 mg/kg i.v., 20 min
  Changes(%) of basal values, coronary sinus oxygen tension: +3.0%
[1]; 2.0 mg/kg i.v., 30 min
  Changes(%) of basal values, coronary sinus oxygen tension: 0%
[1]; 2.0 mg/kg i.v., imm.
  Changes(%) of basal values, coronary sinus oxygen tension: +3.0%
[1]; until after 5-20 minutes, i.v.
  minimum increase in oxygen tension: 3-5%
[2]; 0.2 mg/kg i.v., 1 min
  Changes (%) of basal values, arterial mean blood pressure: -1.0%
[2]; 0.2 mg/kg i.v., 5 min
  Changes (%) of basal values, arterial mean blood pressure: -2.0%
[2]; 0.2 mg/kg i.v., 10 min
  Changes (%) of basal values, arterial mean blood pressure: -1.5%
[2]; 0.2 mg/kg i.v., 20 min
  Changes (%) of basal values, arterial mean blood pressure: 0%
[2]; 0.2 mg/kg i.v., 30 min
  Changes (%) of basal values, arterial mean blood pressure: 0%
[2]; 0.2 mg/kg i.v., imm.
  Changes (%) of basal values, arterial mean blood pressure: -3.0%
[2]; 0.6 mg/kg i.v., 1 min
  Changes (%) of basal values, arterial mean blood pressure: -2.0%
[2]; 0.6 mg/kg i.v., 5 min
  Changes (%) of basal values, arterial mean blood pressure: -1.5%
[2]; 0.6 mg/kg i.v., 10 min
  Changes (%) of basal values, arterial mean blood pressure: -1.0%
[2]; 0.6 mg/kg i.v., 20 min
  Changes (%) of basal values, arterial mean blood pressure: 0%
[2]; 0.6 mg/kg i.v., 30 min
  Changes (%) of basal values, arterial mean blood pressure: 0%
[2]; 0.6 mg/kg i.v., imm.
  Changes (%) of basal values, arterial mean blood pressure: -6.0%
[2]; 2.0 mg/kg i.v., 1 min
  Changes (%) of basal values, arterial mean blood pressure: -35.0%
[2]; 2.0 mg/kg i.v., 5 min
  Changes (%) of basal values, arterial mean blood pressure: -2.0%
[2]; 2.0 mg/kg i.v., 10 min
  Changes (%) of basal values, arterial mean blood pressure: -1.0%
[2]; 2.0 mg/kg i.v., 20 min
  Changes (%) of basal values, arterial mean blood pressure: -1.0%
[2]; 2.0 mg/kg i.v., 30 min
  Changes (%) of basal values, arterial mean blood pressure: -2.0%
[2]; 2.0 mg/kg i.v., imm.
  Changes (%) of basal values, arterial mean blood pressure: -55.0%
Coronary sinus out flow; 0.2 mg/kg i.v., 1 min
  Changes(%) of basal values, coronary sinus out flow: +1.0%
Coronary sinus out flow; 0.2 mg/kg i.v., 5 min
  Changes(%) of basal values, coronary sinus out flow: 0%
Coronary sinus out flow; 0.2 mg/kg i.v., 10 min
  Changes(%) of basal values, coronary sinus out flow: 0%
Coronary sinus out flow; 0.2 mg/kg i.v., 20 min
  Changes(%) of basal values, coronary sinus out flow: 0%
Coronary sinus out flow; 0.2 mg/kg i.v., 30 min
  Changes(%) of basal values, coronary sinus out flow: 0%
Coronary sinus out flow; 0.2 mg/kg i.v., 40 min
  Changes(%) of basal values, coronary sinus out flow: 0%
Coronary sinus out flow; 0.2 mg/kg i.v., imm.
  Changes(%) of basal values, coronary sinus out flow: +4.0%
Coronary sinus out flow; 0.6 mg/kg i.v., 1 min
  Changes(%) of basal values, coronary sinus out flow: +2.5%
Coronary sinus out flow; 0.6 mg/kg i.v., 5 min
  Changes(%) of basal values, coronary sinus out flow: +0.5%
Coronary sinus out flow; 0.6 mg/kg i.v., 10 min
  Changes(%) of basal values, coronary sinus out flow: 0%
Coronary sinus out flow; 0.6 mg/kg i.v., 20 min
  Changes(%) of basal values, coronary sinus out flow: 0%
Coronary sinus out flow; 0.6 mg/kg i.v., 30 min
  Changes(%) of basal values, coronary sinus out flow: 0%
Coronary sinus out flow; 0.6 mg/kg i.v., 40 min
  Changes(%) of basal values, coronary sinus out flow: 0%
Coronary sinus out flow; 0.6 mg/kg i.v., imm.
  Changes(%) of basal values, coronary sinus out flow: +6.0%
Coronary sinus out flow; 2.0 mg/kg i.v., 1 min
  Changes(%) of basal values, coronary sinus out flow: -3.0%
Coronary sinus out flow; 2.0 mg/kg i.v., 5 min
  Changes(%) of basal values, coronary sinus out flow: +3.0%
Coronary sinus out flow; 2.0 mg/kg i.v., 10 min
  Changes(%) of basal values, coronary sinus out flow: +9.0%
Coronary sinus out flow; 2.0 mg/kg i.v., 20 min
  Changes(%) of basal values, coronary sinus out flow: +4.0%
Coronary sinus out flow; 2.0 mg/kg i.v., 30 min
  Changes(%) of basal values, coronary sinus out flow: 0%
Coronary sinus out flow; 2.0 mg/kg i.v., imm.
  Changes(%) of basal values, coronary sinus out flow: -13.0%
Heart rate; 0.2 mg/kg i.v., 1 min
  Changes(%) of basal values, heart rate: 0%
Heart rate; 0.2 mg/kg i.v., 5 min
  Changes(%) of basal values, heart rate: -1.5%
Heart rate; 0.2 mg/kg i.v., 10 min
  Changes(%) of basal values, heart rate: -1.0%
Heart rate; 0.2 mg/kg i.v., 20 min
  Changes(%) of basal values, heart rate: 0%
Heart rate; 0.2 mg/kg i.v., 30 min
  Changes(%) of basal values, heart rate: 0%
Heart rate; 0.2 mg/kg i.v., imm.
  Changes(%) of basal values, heart rate: +1.5%
Heart rate; 0.6 mg/kg i.v., 1 min
  Changes(%) of basal values, heart rate: +0.5%
Heart rate; 0.6 mg/kg i.v., 5 min
  Changes(%) of basal values, heart rate: -0.5%
Heart rate; 0.6 mg/kg i.v., 10 min
  Changes(%) of basal values, heart rate: 0%
Heart rate; 0.6 mg/kg i.v., 20 min
  Changes(%) of basal values, heart rate: -1.0%
Heart rate; 0.6 mg/kg i.v., 30 min
  Changes(%) of basal values, heart rate: 0%
Heart rate; 0.6 mg/kg i.v., imm.
  Changes(%) of basal values, heart rate: +1.5%
Heart rate; 2.0 mg/kg i.v., 1 min
  Changes(%) of basal values, heart rate: -2.0%
Heart rate; 2.0 mg/kg i.v., 5 min
  Changes(%) of basal values, heart rate: -2.0%
Heart rate; 2.0 mg/kg i.v., 10 min
  Changes(%) of basal values, heart rate: -1.5%
Heart rate; 2.0 mg/kg i.v., 20 min
  Changes(%) of basal values, heart rate: -1.5%
Heart rate; 2.0 mg/kg i.v., 30 min
  Changes(%) of basal values, heart rate: -1.5%
Heart rate; 2.0 mg/kg i.v., imm.
  Changes(%) of basal values, heart rate: +5.5%
Aortic blood flow; 0.2 mg/kg i.v., 1 min
  Changes (%) of basal values, aortic blood flow: 0%
Aortic blood flow; 0.2 mg/kg i.v., 5 min
  Changes (%) of basal values, aortic blood flow: 0%
Aortic blood flow; 0.2 mg/kg i.v., 10 min
  Changes (%) of basal values, aortic blood flow: 0%
Aortic blood flow; 0.2 mg/kg i.v., 20 min
  Changes (%) of basal values, aortic blood flow: 0%
Aortic blood flow; 0.2 mg/kg i.v., 30 min
  Changes (%) of basal values, aortic blood flow: 0%
Aortic blood flow; 0.2 mg/kg i.v., imm.
  Changes (%) of basal values, aortic blood flow: 0%
Aortic blood flow; 0.6 mg/kg i.v., 1 min
  Changes (%) of basal values, aortic blood flow: +0.5%
Aortic blood flow; 0.6 mg/kg i.v., 5 min
  Changes (%) of basal values, aortic blood flow: 0%
Aortic blood flow; 0.6 mg/kg i.v., 10 min
  Changes (%) of basal values, aortic blood flow: -1.0%
Aortic blood flow; 0.6 mg/kg i.v., 20 min
  Changes (%) of basal values, aortic blood flow: -1.0%
Aortic blood flow; 0.6 mg/kg i.v., 30 min
  Changes (%) of basal values, aortic blood flow: 0%
Aortic blood flow; 0.6 mg/kg i.v., imm.
  Changes (%) of basal values, aortic blood flow: +1.5%
Aortic blood flow; 2.0 mg/kg i.v., 1 min
  Changes (%) of basal values, aortic blood flow: 0%
Aortic blood flow; 2.0 mg/kg i.v., 5 min
  Changes (%) of basal values, aortic blood flow: +11.0%
Aortic blood flow; 2.0 mg/kg i.v., 10 min
  Changes (%) of basal values, aortic blood flow: +23.0%
Aortic blood flow; 2.0 mg/kg i.v., 20 min
  Changes (%) of basal values, aortic blood flow: +5.0%
Aortic blood flow; 2.0 mg/kg i.v., 30 min
  Changes (%) of basal values, aortic blood flow: +5.0%
Aortic blood flow; 2.0 mg/kg i.v., imm.
  Changes (%) of basal values, aortic blood flow: -78.0%
Coronary blood flow
  depressant effect on the heart: depressant effect on the heart
